Data taken from US20020103117A1, “Use of protein kinase-inhibitor-alpha” (priority 2000, published 2002).

Experiments:
protein kinase-A = experiment: Activity of protein kinase-A in cell cultures of myocytes; format: cell-based; details: cell cultures of myocytes (e.g., C9H2 cells)
Protocol: The protein-kinase-inhibitor alpha shortened to amino acids 14 to 22 was added to the cell cultures of myocytes (e.g., C9H2 cells, available from the American Type Culture Collection), and the activity of protein kinase-A was determined.
The 9-amino-acid-long PKI-alpha inhibitor (the gene product of the second open reader frame of the PKI gene in humans and in pigs) was added to the cell cultures of myocytes, and the expression of the PKI-alpha and the activity of protein kinase-A were determined.

functioning rat heart = experiment: Action of PKI-alpha on an isolated, perfused functioning rat heart; design: species or system Sprague Dawley rats
Protocol: Hearts from a total of six Sprague Dawley rats with a weight of about 300 g were isolated and perfused as described in Schulze et al. (Schulze et al.; Circulation 1990: 959-69). The hemodynamic parameters including contractility, external heart work (EHW), coronary and aortic flow were recorded about 15 minutes after antegrade perfusion. Cell-permeable, recombinant PKI-alpha (amino acids 14 to 22, Calbiochem #476485) was then administered. The compound was infused directly into the atrium canula using a motor pump. The infusion rate was continuously adapted to the emission volume (the sum of the aortic and coronary flow) and increased in five-minute intervals to reach the final PKI-alpha concentrations in the perfusate of 0.5, 1.0 and 2.0 μmol/l.

[1] = PKI-alpha in perfusate 0.5, 1.0 and 2.0 μmol/l

Substance: shortened PKI-alpha: Cell-permeable, recombinant PKI-alpha comprising only amino acids 14 to 22 of the complete sequence, Calbiochem #476485
- activity of protein kinase-A (protein kinase-A): dose-dependent reduction of activity
- decrease of the left ventricular function, expressed as dp/dt-max (functioning rat heart; [1]): 53%
- reduction of the external heart work (functioning rat heart; [1]): 43%
- depression of the myocardial function (functioning rat heart; infusion up to 2 μmol): pronounced, reversible, concentration-dependent (up to 2 μmol) depression of the myocardial function
